The text below walks through data of patent US8173705B2, “Agent for alleviating wrinkles” (Shiseido Company Ltd., priority 2007, dated 2012).

The subject of this test is SCCA 1 (Serpin b3) expression. The test is described as follows: Effect of suppressing SCCA 1 expression (RT-PCR in human normal keratinocytes). Type of test: cell-based. Conditions: incubated 24 hours, G3PDH internal standard, compared with control sample. The method, then:
Human normal keratinocytes (manufactured by KURABO INDUSTRIES LTD.) were incubated with culture medium, Epilife (manufactured by KURABO INDUSTRIES LTD.) For medium replacement, the medium was subcultured for three times a week. The human normal keratinocytes were seeded on 3.5 cm dishes. In the phase of 60 to 70% confluent, 200 μM and 1 mM of N-benzenesulfonyl-gamma-aminobutyric were respectively added to the dishes, which were incubated for 24 hours. Then RNAs were extracted with use of Isogen, and SCCA 1 (Serpin b3) expression levels were measured by RT-PCR. Additionally, as a control sample, the same test except no addition of gamma-aminobutyric acid derivatives was conducted. G3PDH was used as internal standard. The primers used for PCR were as follows.

As for `O=C(O)CCCNS(=O)(=O)c1ccccc1` [N-benzenesulfonyl-gamma-aminobutyric acid], the “Serpin b3 (SCCA 1) expression level” value runs as follows: (200 μM added) “significantly decreased”; (1 mM added) “significantly decreased”.
